Experimental data reported in patent US20200338028A1, “BENZENESULFONAMIDE DERIVATIVES AND METHOD FOR MODULATING LIPID RAFT” (Gongwin Biopharm Co., Ltd., priority 2017, published 2020).

Tested on: DU-145 cells
Experiment: SRB assay, anti-proliferative effect
Format: cell-based
Conditions: Homo sapiens; DU-145, SRB assay, FIG. 1A; read-out: IC50, inhibition of cell growth
Description: Two castration-resistant prostate cancer (CRPC) cell lines of PC-3 and DU-145 were cultured in RPMI 1640 medium with 5% FBS (v/v), penicillin (100 units/ml) and streptomycin (100 μg/ml). Cultures were maintained in a 37° C. incubator with 5% CO2, and adherent cultures were passaged using 0.05% trypsin-EDTA when they reached about 80% confluence. Prostate cells were from human tissue samples which were obtained following informed consent of the donors and after full review by the Ethics Review Committee at National Taiwan University Hospital. The prostate specimens were from males by transurethral resection of the prostate. All patients with prostatism histories were diagnosed to have benign prostate hyperplasia by rectal digital examination, transrectal sonography of prostate and urodynamic studies. […] SRB assay is an accurate and reproducible assay based upon quantitative SRB staining of cellular proteins, and the process for SRB assay was performed as follows. […] The absorbance of SRB was measured at a wavelength of 515 nm at the time of p-TSA addition (hereinafter referred to as time zero, TZ), and after additional incubation of DMSO (hereinafter referred to as control growth, CTL) or p-TSA (hereinafter referred to as Tx). The percentage of cell growth inhibition was calculated by the formula of [1−(Tx−TZ)/(CTL−TZ)]×100%. […]

IC50: ~3000 µM
SMILES: Cc1ccc(S(N)(=O)=O)cc1 [p-TSA, para-toluenesulfonamide]
